Test results: patent EP0252380B1, “Antibiotic LL-E19020 alpha and beta” (AMERICAN CYANAMID COMPANY, priority 1986, dated 1988)
≈ marks a conversion by molar mass, not a printed value. Marks after values point to notes of the source that are not given here.

Assays:
[1] = system: Staphylococcus aureus; assay: In vitro antibacterial activity, standard agar dilution method (Table II); type: cell-based
[2] = system: Staphylococcus saprophyticus; assay: as above; type: cell-based; conditions: strain VHG-84-50
[3] = system: Enterococcus; assay: as above; type: cell-based
[4] = system: Escherichia coli; assay: as above; type: cell-based; conditions: strain 311
[5] = system: Klebsiella pneumoniae; assay: as above; type: cell-based; conditions: strain AD
[6] = system: Enterobacter cloacae; assay: as above; type: cell-based; conditions: strain VGH-84-37
[7] = system: Morganella morganii; assay: as above; type: cell-based; conditions: strain VGH-84-71
[8] = system: Bacteroides fragilis; assay: as above; type: cell-based; conditions: strain NYC 77-1
[9] = system: Clostridium difficile; assay: as above; type: cell-based; conditions: strain ATCC 17858
[10] = system: Clostridium perfringens; type: cell-based; conditions: strain ATCC 13124
[11] = system: Streptococcus agalactiae; assay: Minimum inhibitory concentration by agar dilution (Table VI); type: cell-based; conditions: 4 strains tested
[12] = system: Streptococcus faecalis; assay: as above; type: cell-based; conditions: 1 strain tested
[13] = system: Salmonella choleraesuis; assay: as above; type: cell-based; conditions: 2 strains tested
[14] = system: Bordetella bronchiseptica; assay: as above; type: cell-based; conditions: 4 strains tested
[15] = system: Treponema hyodysenteriae; assay: Minimum inhibitory concentration by microdilution (Table VII); type: cell-based
[16] = Weight gain and feed efficiency of broiler chicks (Example 6, Table IX); type: in vivo, Peterson X Arbor Acres chicks; conditions: for Wg Gains And Feed Efficiency % Improvement Over Controls FEED/GAIN: control 1.41
[17] = system: In Vitro Rumen Fermentation; assay: Propionate enhancement activity during in vitro rumen fermentation; type: cell-based, steer; conditions: for A:P: acetate/propionate ratio
Procedure: The drugs are dissolved or suspended (sonified if necessary) in a 0.1% Tween 20-ethanol-water vehicle and 25-50 ul is added to the incubation. The reaction is terminated with 6N HCl and centrifuged at 20,000 x g. Alliquots of the superinatant are analyzed for volatile fatty acid (VFA) content by gas-liquid chromatography.

[18] = system: Trichostrongylus colubriformis; assay: Trichostrongylus colubriformis/gerbil anthelmintic evaluation; type: in vivo, Gerbils
Procedure: Gerbils are infected with 400 infective larvae of the sheep parasite, T. colubriformis on a day 0. On day 7 gerbils are divided into test and untreated control groups of 2-3 animals. Drug is administered in the feed and are fed from day 7-11. Drugs may also be given by gavage (single oral dose) or injected subcutaneously. Single doses are usually administered on day 7. Gerbils are killed on day 11 and small intestines removed. The number of T. colubriformis remaining in the intestines of treated animals are counted and compared to the number remaining in the untreated controls.

[19] = system: Streptococcus pyogenes C203; assay: In vivo antibacterial activity in infected mice (Table III); conditions: S. pyogenes C203, 30 minutes before infection

SMILES: C/C=C\C=C\[C@@H]1O[C@](O)([C@H](CO[C@H]2C[C@@H](OC)[C@@H](O[C@@H]3C[C@@H](OC)[C@@H](O[C@H]4C[C@H](OC)[C@H](O)[C@H](C)O4)[C@H](C)O3)[C@@H](C)O2)C(=O)NC/C=C/C=C(\C)[C@@H](OC)[C@H](C)[C@H]2C[C@H](O)[C@H](/C=C/C=C/C=C/C(=O)O)O2)[C@H](OC(=O)Cc2ccccc2)[C@H](O)C1(C)C [LL-E19020 alpha]
- Minimal Inhibitory Concentration ([1]; strain ATCC 25923): > 256 µg/mL
- Minimal Inhibitory Concentration ([1]; strain CMC-83-127): > 256 µg/mL
- Minimal Inhibitory Concentration ([1]; strain CMC-83-131): > 256 µg/mL
- Minimal Inhibitory Concentration ([1]; strain CMC-83-132): > 256 µg/mL
- Minimal Inhibitory Concentration ([1]; strain SSC-82-57): > 256 µg/mL
- Minimal Inhibitory Concentration ([1]; strain Smith): 128 µg/mL
- Minimal Inhibitory Concentration ([1]; strain VGH-84-45): > 256 µg/mL
- Minimal Inhibitory Concentration [2]: > 256 µg/mL
- Minimal Inhibitory Concentration ([3]; strain CMC-83-72): >256 µg/mL
- Minimal Inhibitory Concentration ([3]; strain IO-83-28): >256 µg/mL
- Minimal Inhibitory Concentration ([3]; strain IO-83-40): >256 µg/mL
- Minimal Inhibitory Concentration ([3]; strain VGH-84-65): 256 µg/mL
- Minimal Inhibitory Concentration ([3]; strain VGH-84-68): >256 µg/mL
- Minimal Inhibitory Concentration [4]: >256 µg/mL
- Minimal Inhibitory Concentration [5]: >256 µg/mL
- Minimal Inhibitory Concentration [6]: >256 µg/mL
- Minimal Inhibitory Concentration [7]: >256 µg/mL
- Minimal Inhibitory Concentration [8]: >128 µg/mL
- Minimal Inhibitory Concentration [9]: 4 µg/mL
- Minimal Inhibitory Concentration [10]: 16 µg/mL
- MIC [11]: 2 to 8 µg/mL
- MIC [12]: 8 µg/mL (≈ 6.52 µM)
- MIC [13]: > 256 µg/mL
- MIC [14]: > 256 µg/mL
- MIC ([15]; strain B78 (ATCC 27164)): 1 µg/mL (≈ 0.815 µM)
- MIC ([15]; strain B204 (ATCC 31212)): 1 µg/mL (≈ 0.815 µM)
- Wg Gains And Feed Efficiency % Improvement Over Controls COMBINED ([16]; 12.5 PPM in diet): 3.8%
- Wg Gains And Feed Efficiency % Improvement Over Controls FEMALES ([16]; 12.5 PPM in diet): 7.8* %
- Wg Gains And Feed Efficiency % Improvement Over Controls MALES ([16]; 12.5 PPM in diet): 0%
- Wg Gains And Feed Efficiency % Improvement Over Controls FEED/GAIN ([16]; 12.5 PPM in diet): 1.36*
- Wg Gains And Feed Efficiency % Improvement Over Controls COMBINED ([16]; 25 PPM in diet): 5.5%
- Wg Gains And Feed Efficiency % Improvement Over Controls FEMALES ([16]; 25 PPM in diet): 4.8%
- Wg Gains And Feed Efficiency % Improvement Over Controls MALES ([16]; 25 PPM in diet): 5.9%
- Wg Gains And Feed Efficiency % Improvement Over Controls FEED/GAIN ([16]; 25 PPM in diet): 1.34**
- Wg Gains And Feed Efficiency % Improvement Over Controls COMBINED ([16]; 50 PPM in diet): 6.6* %
- Wg Gains And Feed Efficiency % Improvement Over Controls FEMALES ([16]; 50 PPM in diet): 10.5** %
- Wg Gains And Feed Efficiency % Improvement Over Controls MALES ([16]; 50 PPM in diet): 3.6%
- Wg Gains And Feed Efficiency % Improvement Over Controls FEED/GAIN ([16]; 50 PPM in diet): 1.34**
- Wg Gains And Feed Efficiency % Improvement Over Controls COMBINED ([16]; 100 PPM in diet): 2.9%
- Wg Gains And Feed Efficiency % Improvement Over Controls FEMALES ([16]; 100 PPM in diet): 3.2%
- Wg Gains And Feed Efficiency % Improvement Over Controls MALES ([16]; 100 PPM in diet): 2.9%
- Wg Gains And Feed Efficiency % Improvement Over Controls FEED/GAIN ([16]; 100 PPM in diet): 1.34**
- Wg Gains And Feed Efficiency % Improvement Over Controls COMBINED ([16]; 200 PPM in diet): 5.7%
- Wg Gains And Feed Efficiency % Improvement Over Controls FEMALES ([16]; 200 PPM in diet): 7.1%
- Wg Gains And Feed Efficiency % Improvement Over Controls MALES ([16]; 200 PPM in diet): 4.5%
- Wg Gains And Feed Efficiency % Improvement Over Controls FEED/GAIN ([16]; 200 PPM in diet): 1.32**
- A:P ([17]; Table X, 0.008 PPM, control 2.65): 2.66
- TOTAL VFA ([17]; Table X, 0.008 PPM, control 159.4): 161.2 mM
- A:P ([17]; Table X, 0.031 PPM, control 2.65): 2.43
- TOTAL VFA ([17]; Table X, 0.031 PPM, control 159.4): 158.4 mM
- A:P ([17]; Table X, 0.125 PPM, control 2.65): 2.14
- TOTAL VFA ([17]; Table X, 0.125 PPM, control 159.4): 159.2 mM
- A:P ([17]; Table X, 0.500 PPM, control 2.65): 2.27
- TOTAL VFA ([17]; Table X, 0.500 PPM, control 159.4): 146.9 mM
- A:P ([17]; Table X, 2.000 PPM, control 2.65): 2.21
- TOTAL VFA ([17]; Table X, 2.000 PPM, control 159.4): 150.5 mM
- A:P ([17]; Table XI, 0.015 PPM, control 2.19): 2.05
- TOTAL VFA ([17]; Table XI, 0.015 PPM, control 125.3): 125.1 mM
- A:P ([17]; Table XI, 0.031 PPM, control 2.19): 1.96
- TOTAL VFA ([17]; Table XI, 0.031 PPM, control 125.3): 126.5 mM
- A:P ([17]; Table XI, 0.062 PPM, control 2.19): 1.90
- TOTAL VFA ([17]; Table XI, 0.062 PPM, control 125.3): 126.3 mM
- A:P ([17]; Table XI, 0.125 PPM, control 2.19): 1.92
- TOTAL VFA ([17]; Table XI, 0.125 PPM, control 125.3): 121.9 mM
- A:P ([17]; Table XI, 0.250 PPM, control 2.19): 1.85
- TOTAL VFA ([17]; Table XI, 0.250 PPM, control 125.3): 121.1 mM
- % Worms Removed ([18]; 10 m/kg single oral dose): 23%
- % Worms Removed ([18]; 250 ppm diet, fed day 7-11): 56%
- Survival Ratios 7 Days After Infection ([19]; single subcutaneous dose 4 mg/kg): 2/5
- Survival Ratios 7 Days After Infection ([19]; single subcutaneous dose 8 mg/kg): 4/5
- Survival Ratios 7 Days After Infection ([19]; single subcutaneous dose 16 mg/kg): 5/5
- Survival Ratios 7 Days After Infection ([19]; single subcutaneous dose 32 mg/kg): 5/5
- Survival Ratios 7 Days After Infection ([19]; single subcutaneous dose 64 mg/kg): 5/5
